Data reported in patent US8206764B2, “Black soybean hull extract, method for obtaining, and use thereof” (Beijing Gingko-Group Biological Technology Co., Ltd., priority 2006, dated 2012).

Test: clearance of hydroxyl free radicals, orthophenanthroline Fe2+ oxidation method
Assay type: biochemical
Design: Clearance rate of •OH (d): unit not given here
Details: for Clearance rate of •OH (d): n = 5
Description: Materials and methods-test drug and reagent: Extract of black soybean hull A (containing cyanidin 12.52%, catechin 13.50%, and OPC 54.01%). Orthophenanthroline, hydrogen peroxide, ascorbic acid (VC), and FeSO4.7H2O were all analytical pure reagents made in China. Materials and Methods-instruments: An LSY constant temperature water bath was obtained from a Beijing medical instrument manufacturer, and a UV-2000 spectrophotometer was from […], Shanghai Instrument Co., Ltd.). Test method-reagent preparation: Reagents included 0.1% H2O[…]), a 5 mmol/L anhydrous ethanol solution of orthophenanthroline, 0.75 mmol/L FeSO4, a 0.2 mmol/L phosphoric acid buffer solution (PBS; pH=7.4), BSHE A, prepared with double distilled water and diluted to concentrations of 0.5, 0.25, 0.125, and 0.0625 mg/ml, and ascorbic acid, prepared at concentrations of 4, 2, 1, and 0.5 mg/ml with double distilled water. Test method-measuring hydroxyl free radicals: The clearing of hydroxyl free radicals was tested using an orthophenanthrolin Fe^2+ oxidation method to further evaluate the anti-oxidation capacity of BSHE A. (1) 2 ml PBS, the test drug at the concentrations listed above, and 1 ml ascorbic acid were sequentially added to a disposable 10 ml polyethylene test tube and shaken. 0.35 ml of 5 mmol/L orthophenanthroline solution and 1 ml 0.75 mmol/L FeSO4 were added and mixed fully. 1 ml of 0.1% H2O2 was added, and the tube was vibrated for 1 minute. […] (2) The 1 ml of test drug in (1) was replaced with 1 ml deionized water, while the other conditions were the same as in (1). The absorbency value Ab was measured. (3) The 1 ml H2O2 in (2) was replaced with 1 ml deionized water, while the other conditions were the same as in (2). The absorbency value Ac was measured. (4) The clearance rate (d) of .OH by the test drug and the positive comparison was calculated according to the following equation: [formula] The total volume of reaction was 5.35 ml. The final concentrations of ascorbic acid thus were 0.748 mg/ml, 0.374 mg/ml, 0.187 mg/ml, and 0.093 mg/ml, while the final concentrations of BSHE A were 0.093 mg/ml, 0.047 mg/ml, 0.023 mg/ml, and 0.012 mg/ml. Five samples were tested in each group. The clearance rate of .OH was calculated individually and then average values were calculated.

IC50 of hydroxyl free radical clearance (from fitted line): 401.4 µg/mL
SMILES: O=C1O[C@H]([C@@H](O)CO)C(O)=C1O [ascorbic acid]
Clearance rate of •OH (d) (final concentration 0.093 mg/ml): 0.212 ± 2.47
Clearance rate of •OH (d) (final concentration 0.187 mg/ml): 4.21 ± 1.32
Clearance rate of •OH (d) (final concentration 0.374 mg/ml): 50.32 ± 4.29
Clearance rate of •OH (d) (final concentration 0.748 mg/ml): 91.29 ± 3.26
